Results on one compound are retold here after patent US20050037423A1, “Isotopycally coded affinity marker 2” (Bayer Healthcare AG, priority 2001, published 2005).

The nature of this series: Solubility in water. The series is classed as physicochemical.

For `O=C(CCN1C(=O)C=CC1=O)NCCCOCCOCCOCCCNC(=O)[C@H](Cc1c[nH]cn1)NC(=S)Nc1ccc(CNC(=O)CCCC[C@@H]2SC[C@@H]3NC(=O)N[C@@H]32)cc1` [Example 3], the solubility in water result was “completely soluble”.
